According to publication PMC9953295, “Commonly Used Therapeutics Associated with Changes in Arousal Inhibit GABAAR Activation” (Biomolecules, 2023):
Structures can show the parent of a compound that is named as a salt.

Experiments:
[1] = one reference per drug; cited from earlier work
[2] = biological target: α1β2γ2L GABAA receptors stably expressed in HEK293 cells (Mus musculus, UniProt P22723+P62812+P63137); type: cell-based; conditions: for nH: Hill coefficient of modulator concentration-response; for Effect on GABAA receptor activation (in words): microfluidic patch clamp, concentrations up to 300 μM
α1β2γ2L GABAA receptors stably expressed in HEK293 cells, sequence (P63137 26-512): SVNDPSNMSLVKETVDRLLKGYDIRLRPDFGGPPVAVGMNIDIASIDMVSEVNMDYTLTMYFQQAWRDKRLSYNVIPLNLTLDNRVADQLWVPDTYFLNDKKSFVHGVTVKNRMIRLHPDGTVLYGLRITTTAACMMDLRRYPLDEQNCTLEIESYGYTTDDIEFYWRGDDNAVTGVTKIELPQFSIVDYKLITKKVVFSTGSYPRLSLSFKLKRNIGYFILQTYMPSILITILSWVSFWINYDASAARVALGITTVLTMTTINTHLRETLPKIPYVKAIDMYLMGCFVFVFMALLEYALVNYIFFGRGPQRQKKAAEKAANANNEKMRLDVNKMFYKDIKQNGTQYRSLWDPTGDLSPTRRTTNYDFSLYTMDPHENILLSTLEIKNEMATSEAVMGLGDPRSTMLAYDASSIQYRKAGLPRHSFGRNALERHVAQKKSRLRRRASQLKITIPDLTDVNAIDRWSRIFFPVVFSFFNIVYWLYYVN
α1β2γ2L GABAA receptors stably expressed in HEK293 cells, sequence (P22723 39-474): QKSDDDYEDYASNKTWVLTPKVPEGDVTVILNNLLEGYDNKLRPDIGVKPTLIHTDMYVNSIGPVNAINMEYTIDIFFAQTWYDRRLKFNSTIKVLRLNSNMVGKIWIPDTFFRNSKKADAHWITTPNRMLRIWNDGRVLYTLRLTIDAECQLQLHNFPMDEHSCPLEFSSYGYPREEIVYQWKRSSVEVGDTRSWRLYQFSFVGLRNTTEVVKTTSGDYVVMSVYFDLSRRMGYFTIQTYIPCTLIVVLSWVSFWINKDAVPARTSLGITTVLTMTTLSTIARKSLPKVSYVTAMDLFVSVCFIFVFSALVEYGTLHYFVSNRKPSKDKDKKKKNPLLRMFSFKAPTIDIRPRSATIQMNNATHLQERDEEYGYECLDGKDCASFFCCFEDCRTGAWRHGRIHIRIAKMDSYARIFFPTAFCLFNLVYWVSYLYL
α1β2γ2L GABAA receptors stably expressed in HEK293 cells, sequence (P62812 28-455): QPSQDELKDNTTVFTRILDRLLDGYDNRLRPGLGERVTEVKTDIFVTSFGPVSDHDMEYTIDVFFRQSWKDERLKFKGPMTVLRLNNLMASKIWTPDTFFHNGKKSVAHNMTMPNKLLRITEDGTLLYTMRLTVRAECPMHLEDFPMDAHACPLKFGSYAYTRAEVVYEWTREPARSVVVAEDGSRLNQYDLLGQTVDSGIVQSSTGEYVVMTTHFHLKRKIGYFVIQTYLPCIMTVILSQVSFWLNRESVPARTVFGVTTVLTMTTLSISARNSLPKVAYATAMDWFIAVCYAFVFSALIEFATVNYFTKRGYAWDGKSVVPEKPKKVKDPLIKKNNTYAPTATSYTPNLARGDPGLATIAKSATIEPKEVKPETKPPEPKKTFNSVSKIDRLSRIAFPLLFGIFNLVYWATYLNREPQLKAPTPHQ
Experimental: Extracellular saline solutions contained 140 mM NaCl, 5 mM KCl, 2 mM CaCl2, 1 mM MgCl2, 10 mM HEPES, and 10 mM D-glucose. Both salines were adjusted to pH 7.4 (330 mOsm) and were 0.2 µm filter sterilized. The composition was based on solutions designed for long duration HEK293 biophysics studies. HEK293 cells stably expressing mouse α1β2γ2L receptors were dissociated with detachin (Genlantis, San Diego, CA, USA), resuspended in extracellular saline (2.5 × 10^6 cells/mL), and agitated prior to loading into 384-well Fluxion ensemble plates.
Cells were patched using an Ionflux Mercury microfluidic automated patch clamp system (Fluxion Biosciences, Oakland, CA, USA). Each experiment ran on a disposable 384-well plate with microfluidic channels printed into an ionized polydimethylsiloxane base. Each plate was divided into 4 zones, each containing 8 repeats of the same experimental pattern (see Figure 1). Each pattern comprised 8 compound wells containing the ligands/modulator combinations to be used in the experiment. Connected to these by a manifold perfusion chamber was an inlet well containing the cell suspension, an outlet well for discarded perfusate, and 2 trapping wells. Both trapping wells contained intracellular solution and were connected to the manifold via 20 1 µm diameter holes for cell attachment (each pattern can patch up to 40 cells simultaneously). Intracellular electrodes were placed in the 2 trapping wells, and the reference electrode in the waste well. Electrodes were connected to 64 conventional low-noise resistive feedback amplifiers. After cleaning, the plates were loaded with up to 100 µL of experimental solution or cell suspension per well. Each plate was loaded into the Fluxion Ionflux Mercury device, and a bespoke script primed the experimental fluidic channels and manifold, and the traps and sealed cells for voltage clamp measurements, and finally, controlled solution application/concentration jumps prior to saving the data collected. Agonist applications were repeated in triplicate (see Supplemental Figure S1). The current data were recorded at 10 kHz and stored for offline analysis. MATLAB scripts were used to measure the baseline leak current and peak response for each episode of data (typically 2000–4000/experiment). The matrix of peaks was expressed as a percentage of the response to a reference concentration. For the agonist concentration–response experiments, this was the maximum response. For the modulator concentration–response experiments, this was the EC10 agonist response.

[3] = biological target: T1, Human GABAA receptor (α1β2γ2s) expressed in HEK293 cells (Homo sapiens, UniProt P14867+P18507+P47870); assay: Conventional whole-cell patch clamp: GABAA receptor activation and CSF-mediated potentiation; type: cell-based; conditions: for Effect on GABAA receptor activation (in words): conventional single electrode patch clamp
T1 construct: expressed in transfected cells; host or cells: HEK293
T1 sequence (P14867 28-456): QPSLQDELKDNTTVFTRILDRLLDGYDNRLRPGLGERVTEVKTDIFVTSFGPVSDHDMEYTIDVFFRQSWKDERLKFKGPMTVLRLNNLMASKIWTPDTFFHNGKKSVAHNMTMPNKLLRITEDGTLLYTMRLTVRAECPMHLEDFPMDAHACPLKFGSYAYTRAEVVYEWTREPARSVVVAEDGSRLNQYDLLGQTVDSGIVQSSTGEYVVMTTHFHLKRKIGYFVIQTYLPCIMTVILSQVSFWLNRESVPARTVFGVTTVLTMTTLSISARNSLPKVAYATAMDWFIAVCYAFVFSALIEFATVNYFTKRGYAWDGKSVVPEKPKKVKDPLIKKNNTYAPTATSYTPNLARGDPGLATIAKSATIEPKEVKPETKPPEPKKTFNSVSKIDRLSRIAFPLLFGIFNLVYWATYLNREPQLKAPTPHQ
T1 sequence (P47870 25-512 limits assumed): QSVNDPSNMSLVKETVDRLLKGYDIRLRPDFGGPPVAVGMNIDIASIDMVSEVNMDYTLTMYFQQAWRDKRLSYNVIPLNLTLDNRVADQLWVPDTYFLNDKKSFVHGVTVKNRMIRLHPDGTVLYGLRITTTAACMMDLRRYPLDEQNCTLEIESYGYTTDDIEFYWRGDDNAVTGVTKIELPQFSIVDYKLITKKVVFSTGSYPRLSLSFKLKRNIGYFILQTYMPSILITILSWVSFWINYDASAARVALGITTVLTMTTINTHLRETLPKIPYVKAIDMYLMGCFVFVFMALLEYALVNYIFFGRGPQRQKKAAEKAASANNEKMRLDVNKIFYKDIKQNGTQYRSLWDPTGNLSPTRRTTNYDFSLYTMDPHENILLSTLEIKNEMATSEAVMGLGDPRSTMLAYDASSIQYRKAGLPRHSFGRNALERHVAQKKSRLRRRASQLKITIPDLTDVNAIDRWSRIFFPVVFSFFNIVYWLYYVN
T1 sequence (P18507 40-467 isoform P18507-1 limits assumed): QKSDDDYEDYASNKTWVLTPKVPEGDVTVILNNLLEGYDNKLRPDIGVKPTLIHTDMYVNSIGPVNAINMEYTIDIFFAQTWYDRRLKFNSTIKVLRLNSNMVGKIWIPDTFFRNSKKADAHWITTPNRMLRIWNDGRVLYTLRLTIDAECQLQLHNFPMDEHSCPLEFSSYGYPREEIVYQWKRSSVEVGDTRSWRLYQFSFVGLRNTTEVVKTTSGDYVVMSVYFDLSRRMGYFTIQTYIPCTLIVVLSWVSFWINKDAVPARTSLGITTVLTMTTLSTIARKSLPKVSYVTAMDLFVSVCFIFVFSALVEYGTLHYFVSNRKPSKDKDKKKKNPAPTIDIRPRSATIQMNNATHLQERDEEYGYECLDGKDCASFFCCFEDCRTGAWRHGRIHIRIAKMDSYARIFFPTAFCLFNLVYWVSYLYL
Experimental: Human GABAA receptor cDNAs (α1β2γ2s) were subcloned into the pcDNA 3.1 expression vector, and they were subsequently transfected into HEK293 cells using standard methods. Forty-eight hours later, cells were exposed to individual GABAARNAM solutions with simultaneous exposure to GABA. GABAARNAMs were obtained from Sigma-Aldrich, and the solutions were prepared with a saline solution to 1–300 µM concentrations. […] Stable cell lines were generated and handled as previously described.
Patch pipettes were fabricated from thin-walled borosilicate glass (TW150F-4, World Precision Instruments, Inc., Sarasota, FL, USA) using a horizontal puller (P-97, Sutter Instrument Co., Novato, CA, USA). The resistances of the patch pipettes were 2–5 megaohms when filled with an intracellular solution containing 120 mM KCl, 2 mM MgCl2, 10 mM EGTA, and 10 mM HEPES, adjusted to pH 7.2 with NaOH. Cells were perfused continuously with an extracellular solution containing 160 mM NaCl, 10 mM HEPES, 6 mM D-glucose, 3 mM KCl, 1 mM MgCl2, and 1.5 mM CaCl2, adjusted to pH 7.4. Two 10-channel infusion pumps (KD Scientific) and a rapid solution exchanger (Biologic) were used to apply extracellular saline to the cells. […] The solution changer was driven by protocols written in pClamp 9.2 (Molecular Devices).

[4] = set-up: method as in PMID 10384859; conditions: cited from earlier work

Compound	[CNS] concentration of drug in the CNS [1]	nH [2]	Effect on GABAA receptor activation (in words) [2]	also measured
CC[C@H]1OC(=O)[C@H](C)[C@@H](O[C@H]2C[C@@](C)(OC)[C@@H](O)[C@H](C)O2)[C@H](C)[C@@H](O[C@@H]2O[C@H](C)C[C@H](N(C)C)[C@H]2O)[C@](C)(O)C[C@@H](C)C(=O)[C@H](C)[C@@H](O)[C@]1(C)O [Erythromycin]	0.68 [38] μM			
CCN(CC)CCCC(C)Nc1ccnc2cc(Cl)ccc12 (stereo not shown) [Chloroquine]	1.60 [36] μM			
C1CCc2nnnn2CC1 [pentylenetetrazole, Pentylenetetrazol]	330 [43] μM	1.3	blocked GABAAR activation in a concentration-dependent manner	
NCCCC(=O)O [GABA]				Response to GABA as % of the maximal response ([2]; 100 µM GABA): > 90%
CC1COc2c(N3CCN(C)CC3)c(F)cc3c(=O)c(C(=O)O)cn1c23 (stereo not shown) [Ofloxacin]	5.6 [42] μM		modest and incomplete block of receptor activation	Effect on GABAA receptor activation (in words) [3]: modest and incomplete block of receptor activation
Cc1ncc([N+](=O)[O-])n1CCO [Metronidazole]		0.8	modest inhibition of GABA activation	Bioavailability ([4]; administered orally): > 90%; CNS concentration as % of plasma concentrations [4]: 60–100%
CCN(CCO)CCCC(C)Nc1ccnc2cc(Cl)ccc12 (stereo not shown) [Hydroxychloroquine, Hydroxychloroquine sulfate]	50 [39] μM	1.4	modest and incomplete block of receptor activation	
CC[C@H]1OC(=O)[C@H](C)[C@@H](O[C@H]2C[C@@](C)(OC)[C@@H](O)[C@H](C)O2)[C@H](C)[C@@H](O[C@@H]2O[C@H](C)C[C@H](N(C)C)[C@H]2O)[C@](C)(OC)C[C@@H](C)C(=O)[C@H](C)[C@@H](O)[C@]1(C)O [Clarithromycin, clarithromycin]	10 [37] μM	1	reversibly inhibited GABAA receptor activation in a concentration-dependent manner	Effect of clarithromycin concentration on GABA EC50 (in words) ([2]; GABA concentration–function relationships in 0–300 μM clarithromycin): GABA EC50 continued to increase; Reversal of CSF-induced potentiation of GABA receptor function ([3]; 300 μM clarithromycin, currents activated by 10 μM GABA (EC10), CSF from hypersomnolent patients, n = 6 cells): 71 ± 13%; Intrinsic efficacy at GABAA receptor (in words) ([3]; clarithromycin applied without GABA): no intrinsic efficacy; Effect on GABAA receptor activation (in words) [3]: reversibly inhibits receptor activation
O=C(O[C@@H]1Cc2c(O)cc(O)cc2O[C@@H]1c1cc(O)c(O)c(O)c1)c1cc(O)c(O)c(O)c1 [EGCG, (-)-Epigallocatechin Gallate]	0.18 [35] μM	1.1	modest inhibition of GABA activation	
CN(C)c1ccc(O)c2c1C[C@H]1C[C@H]3[C@H](N(C)C)C(O)=C(C(N)=O)C(=O)[C@@]3(O)C(O)=C1C2=O [Minocycline]	1.1 [41] μM		irreversible blocker	
